Assay results published in patent publication US11607419B2, “Inhibitors of RAC1 and uses thereof for inducing bronchodilatation” (INSTITUT NATIONAL DE LA SANTE ET DE LA RECHERCHE MEDICALE …, priority 2017, dated 2023).
pIC50: −log10 of the molar value. Entries after “also recorded” stand apart in the source; their conditions may differ.

What was measured:
RAC1 [1] = target: T1, RAC1 (Homo sapiens, UniProt P63000); experiment: Nucleotide exchange assay (mant-GTP/mant-GDP), Rac1; assay type: biochemical; set-up: Full-length human small GTPases carrying a 6-histidine tag fused to their C-terminus; 6-histidine tag (C); made in house; host or cells: E. coli; settings: 10 μM
Description: (§1) Nucleotide exchange assays. Full-length human small GTPases carrying a 6-histidine tag fused to their C-terminus were expressed in E. coli and purified to homogeneity. Small GTPases were loaded with GDP or N-methylanthraniloyl-GDP (GDP/mant-GDP, JenaBiosciences) before nucleotide exchange kinetics experiments.
(§2) Nucleotide exchange kinetics were monitored by fluorescence of the mant fluorophore (λexc=360 nm, λem=440 nm) or tryptophan fluorescence (for Arf6; λexc=280 nm, λem=[…]) using a Cary Eclipse fluorimeter (Varian, Toulouse, France) at 30° C. under stirring. All kinetics assays were carried out in a buffer containing 50 mM Tris at pH 8, 300 mM NaCl, 2 mM MgCl2, 1 mM DTT and were started by addition of 100 μM N-methylanthraniloy-GTP or GTP (mant-GTP/GTP, JenaBiosciences). Nucleotide exchange kinetics were carried out at a concentration of small GTPases of 1 μM, either without GEF for spontaneous exchange, in the presence of 50 nM GEF for single kobs (s-1) determination. The kobs was determined from single-exponential fit of the fluorescence change. All experiments were carried out at least in triplicate.

[2] = system: airway hyperresponsiveness; experiment: Airway responsiveness in vivo (whole-body plethysmography, methacholine); set-up: species or system mice; settings: mouse model of allergic asthma, acute nebulization (300 μl at 5 mM) 10 min before methacholine
Experimental: Animals use and airways responsiveness measurement in vivo. All experimental procedures and animal care were performed in accordance with the European Community Standards on the Care and Use of Laboratory Animals and approved by the local ethics committee (Comité d'Ethique en Expérimentation Animale des Pays de Loire). Airway responsiveness was assessed in conscious, unrestrained mice using a barometric, whole-body plethysmography (EMKA Technologies) by recording respiratory pressure curves in response to inhaled methacholine (Sigma) at concentrations of 0-40 mg/ml for 1 min. Airway responsiveness was expressed in enhanced pause (Penh) units. The Penh values measured after stimulation were averaged and expressed as the fold-increase over baseline values. When required, the Rac inhibitor (2) was nebulised (300 μl at 5 mM) 10 min before methacholine challenge.

[3] = target: T2, Rac-GTP (Rac1 activity) in NIH3T3 cells (Mus musculus, UniProt P63001); experiment: Rac activation: active Rac immunoprecipitation and immunoblot of Rac-GTP in fibroblasts stimulated by a Rac activator; assay type: cell-based; settings: pre-incubated 1 h
T2 construct: endogenous in cells; host or cells: NIH3T3
Experimental: (§3) Cell culture, transfection and actin staining. NIH3T3 cells grew up in DMEM (Gibco; Invitrogen) containing 10% foetal bovine serum, 100 units/mL penicillin and 100 μg/mL streptomycin at 37° C. and 5% CO2. The culture medium was changed every 72 hours.
Analysis of Rac1 activity. In NIH3T3 cells lysates, Rac1 activity was evaluated by active Rac immunoprecipitation using anti-Rac-GTP antibody (26903, NewEast Biosciences). The precipitated active Rac was subjected to SDS-PAGE and detected by immunoblot with anti-Rac1 antibody (BD biosciences).

fibroblast adhesion = experiment: Cell adhesion assay using impedance technology; assay type: cell-based; settings: fibroblasts
Experimental: Cell adhesion assay using impedance technology. Cells (10000/well) were seeded in a 96 well plate microtiter xCELLigence assay plate (E-Plate) (ACEA Biosciences Inc.) and placed on the Real-time xCELLigence Cell Analyzer (Roche Applied Science) platform at 37° C. to measure the “cell index” every 5 min for a period of 6 hours. The cell index unit is defined as (Rn−Rb)/15. Rn is the cell electrode impedance of the well when it contains cells. Rb is the background impedance of the well with the media alone.

RAC1 [4] = target: T1, RAC1
RhoG = target: T3, RhoG (Homo sapiens, UniProt P84095); experiment: Nucleotide exchange assay, RhoG; assay type: biochemical; settings: 10 μM
T3 construct: Full-length human small GTPases carrying a 6-histidine tag fused to their C-terminus; 6-histidine tag (C); made in house; host or cells: E. coli
T3 sequence (P84095 whole entry, the tested form may be a part): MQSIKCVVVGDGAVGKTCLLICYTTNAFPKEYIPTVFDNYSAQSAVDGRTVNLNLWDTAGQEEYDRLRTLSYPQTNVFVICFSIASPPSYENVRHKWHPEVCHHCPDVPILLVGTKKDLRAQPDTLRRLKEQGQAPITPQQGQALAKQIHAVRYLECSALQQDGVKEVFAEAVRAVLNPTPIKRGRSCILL
Description: as §1, §2

RhoA = RhoA (Homo sapiens, UniProt P61586); experiment: Nucleotide exchange assay, RhoA; assay type: biochemical; set-up: Full-length human small GTPases carrying a 6-histidine tag fused to their C-terminus; 6-histidine tag (C); made in house; host or cells: E. coli; settings: 10 μM
RhoA, sequence (P61586 whole entry, the tested form may be a part): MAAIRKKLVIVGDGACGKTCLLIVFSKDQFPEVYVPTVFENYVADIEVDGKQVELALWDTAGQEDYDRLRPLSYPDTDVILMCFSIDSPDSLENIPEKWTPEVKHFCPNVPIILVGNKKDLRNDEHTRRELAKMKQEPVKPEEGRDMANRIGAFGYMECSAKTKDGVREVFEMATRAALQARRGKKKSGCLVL
Description: as §1, §2

Rac2 = target: T4, Rac2 (Homo sapiens, UniProt P15153); experiment: Nucleotide exchange assay (mant-GTP/mant-GDP), Rac2; assay type: biochemical; settings: 10 μM
T4 construct: Full-length human small GTPases carrying a 6-histidine tag fused to their C-terminus; 6-histidine tag (C); made in house; host or cells: E. coli
Description: as §1, §2

3T3 cells migration = experiment: Unidirectional cell migration; assay type: cell-based
Experimental: Unidirectional cell migration. Cells (1000/well) were seeded in a 96 well plate with […] fibronectin stripes (CytooPlates Motility, CYTOO) in medium with 1% SVF and allowed to spread for 4 hours before capturing time-lapse images for 24 hours (image/10 minutes) on a Widefield Leica DMI 6000B drove with Metamorph software. Cells speed was measured with ImageJ software.

RAC1 [5] = target: T1, RAC1; experiment: Surface plasmon resonance on immobilised Rac1; assay type: binding
Experimental: Surface plasmon resonance studies. SPR immobilization was performed at 25° C. Rac1, RhoA and Cdc42 purified proteins were diluted to 5 μg/mL in Na^+ acetate buffer (pH 5.0) and injected into sensor chip CM5 (GE Healthcare) in a Biacore T200 (GE Healthcare) that was activated with NHS/EDC buffer. Approximately 5,000 response units of the purified protein were captured on the biosensor chip. Biosensor chips were blocked by an injection of […] ethanolamine (pH 8.5). […] SPR analysis was performed at 25° C. in HBSEP running buffer (5% DMSO). When indicated, EDTA (20 mM) was added in running buffer.

[6] = system: murine bronchial rings (aSMC contraction); experiment: Airways reactivity ex vivo: methacholine contraction of bronchial rings; settings: bronchial rings from control mice, pre-incubated 1 h
Experimental: Airways reactivity ex vivo. Murine primary bronchi were cleaned, cut in rings and mounted on a multichannel isometric myograph in Krebs-Henseleit physiological solution (118.4 mM NaCl, 4.7 mM KCl, 2 mM CaCl2, 1.2 mM MgSO4, 1.2 mM KH2PO4, 25 mM NaHCO3 and 11 mM glucose) at 37° C. under oxygen. A pre-tension of 0.5 mN was applied. We constructed dose-response curves to methacholine (Sigma). When indicated, rings were pre-incubated 1 h before contraction with (2) (or compound A4.1). The wire myograph was connected to a digital data recorder (MacLab/4e, AD Instruments) and recordings were analyzed using LabChart v7 software (AD Instruments).

Rab35 = target: T5, Rab35 (Homo sapiens, UniProt Q15286); experiment: Nucleotide exchange assay, Rab35; assay type: biochemical; settings: 10 μM
T5 construct: Full-length human small GTPases carrying a 6-histidine tag fused to their C-terminus; 6-histidine tag (C); made in house; host or cells: E. coli
T5 sequence (Q15286 whole entry, the tested form may be a part): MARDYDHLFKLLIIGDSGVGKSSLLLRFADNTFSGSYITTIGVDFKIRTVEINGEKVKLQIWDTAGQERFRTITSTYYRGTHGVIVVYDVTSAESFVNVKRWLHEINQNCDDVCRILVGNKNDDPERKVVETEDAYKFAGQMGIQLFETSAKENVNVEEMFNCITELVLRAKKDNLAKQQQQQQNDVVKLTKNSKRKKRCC
Description: as §1, §2

RAC1 [7] = target: T1, RAC1; settings: compared with NSC23766
[8] = system: Rac1-dependent ruffle formation in NIH3T3 cells; experiment: Rac activator-induced membrane ruffling (actin staining) in fibroblasts; assay type: cell-based
Experimental: as §3
After treatments, fibroblasts were fixed with 4% paraformaldehyde in PBS, permeabilized in PBS 0.5% Triton X-100, and incubated with 130 μg/mL of FITC-conjugated phalloidin (Sigma) to visualize F-actin. After staining, images were captured by a fluorescence microscope (Nikon). The actin cytoskeleton organization was analyzed to observe Rac1-dependent ruffle formation.

Arf6 = target: T6, Arf6 (Homo sapiens, UniProt P62330); experiment: Nucleotide exchange assay, Arf6; assay type: biochemical; settings: 10 μM
T6 construct: Full-length human small GTPases carrying a 6-histidine tag fused to their C-terminus; 6-histidine tag (C); made in house; host or cells: E. coli
T6 sequence (P62330 whole entry, the tested form may be a part): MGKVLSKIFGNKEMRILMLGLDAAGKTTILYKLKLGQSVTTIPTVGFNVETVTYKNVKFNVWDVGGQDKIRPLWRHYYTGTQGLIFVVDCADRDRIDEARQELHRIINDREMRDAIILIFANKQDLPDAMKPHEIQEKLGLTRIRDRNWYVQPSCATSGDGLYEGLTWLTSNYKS
Description: as §1, §2

SMILES: COc1ccc(OC)c(NS(=O)(=O)c2ccc(NC(=O)CCSc3ccc(C)cc3)cc2)c1 [Compound (2), N-(4-(N-(2,5-dimethoxyphenyl)sulfamoyl)phenyl)-3-(p-tolylthio)propanamide]
- melting point: 136 °C
- Bmax GTP-binding on Rac1 (RAC1 [1]): decreased
- airway hyperresponsiveness (AHR) [2]: prevented
- Rac activation (Rac-GTP level) by a Rac activator [3]: prevented
- adhesion inhibition compared with NSC23766 (fibroblast adhesion): higher inhibition
- adhesion rate of the cells (fibroblast adhesion; 10 μm): decreases; also recorded: slow down
- pIC50 (RAC1 [4]): 9.00
- nucleotide exchange kinetics of RhoG (RhoG): did not alter
- nucleotide exchange kinetics of RhoA (RhoA): did not alter
- Bmax GTP-binding on Rac2 (Rac2): decreased
- migration inhibition compared with NSC23766 (3T3 cells migration): higher inhibition
- migration rate of the cells (3T3 cells migration): decreases; also recorded: slow down
- SPR binding to Rac1 (RAC1 [5]; 0.78-25 μM injected): binds Rac1
- SPR interaction with Rac1 nucleotide free (RAC1 [5]; EDTA in running buffer): significantly increased
- maximal contraction induced by methacholine [6]: dose-dependent reduced
- nucleotide exchange kinetics of Rab35 (Rab35): did not alter
- Relative activity (NSC23766) (RAC1 [7]): >
- pIC50 ([8]; Mus musculus, NIH3T3, fibroblasts, dose-dependent inhibition): 9.17
- efficiency of Rac activator to induce ruffle ([8]; added 1 h before Rac activation): blocks; also recorded: strongly decreased
- nucleotide exchange kinetics of Arf6 (Arf6): did not alter
